Laboratory results reported in patent US7629318B2, “Immunosuppressant compounds, methods and uses related thereto” (priority 2002, dated 2009).
Read-outs that look alike come from different tables or passages of the source. Numbered stars: 1 amine (or outer) side, 2 acyl side, 3 side chain; on linkers, the order of the positions; unused ones are H or OH. Square brackets hold non-standard residues; d marks the D form. Peptide text beside a SMILES is read from it. * marks the point of attachment. ξ: configuration not given here. Gly(1-amidinopiperidin-4-yl) = N=C(N)N1CCC([C@H](N)C(=O)O)CC1; X1 = CC(C)c1oc([C@H](CO)N[*:1])nc1C(=O)[*:2]; Pro(3R-Ph) = O=C(O)[C@H]1NCC[C@@H]1c1ccccc1; Tic = O=C(O)[C@@H]1Cc2ccccc2CN1; Cha = N[C@@H](CC1CCCCC1)C(=O)O; NMe(benzyl) = CN(Cc1ccccc1)*; ξDisc = O=C(O)C1NCc2ccccc21; Nle = CCCC[C@H](N)C(=O)O; X3 = OCCOCCN*

How the values were obtained:
[1] = Stability of compounds in human blood plasma; format: in vitro ADME
Outline: (§1)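 Compounds at 5 μM final in rat, mouse or human plasma, incubated at 37 °C and sampled at 0, 6 and 24 h. Proteins precipitated with acetonitrile and the supernatant dried and reconstituted in 50% acetonitrile/0.1% TFA. PBS controls run for unstable compounds.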

[2] = molecular target: T1, LG2 (DR1: DRA1*0101 DRB1*0101) cells (Homo sapiens, UniProt P01903+P01911, A100R/D57E/F55L/F60I/F76Y/I96L/L162R/M171V/P40L/Q125E/R42F/V115G/Y59C); experiment: Competitive binding to MHC II proteins expressed on LG2 cells; format: cell-based; settings: LG2 (0101)
T1 construct: MHC II Proteins Expressed on PRIESS and LG2 Cells; endogenous in cells; host or cells: LG2 cells
Outline: (§2)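 LG2 or Priess cells incubated 4 h at 37° C, 6% CO2 in 1% FCS with 10-fold compound dilutions (series 16 nM-1615 μM) and biotinylated-detectable indicator peptide (16 μM solution added). Lysates captured 2 h at 4° C; bound peptide detected via europium-streptavidin time-resolved fluorescence (ex 340, em 613 nm).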

[3] = Stability of compounds in rat blood plasma; format: in vitro ADME
Outline: as §1

[4] = Stability of compounds in mouse blood plasma; format: in vitro ADME
Outline: as §1

[5] = molecular target: DR4Dw14 (DRA1*0101 DRB1*0404) (Homo sapiens, UniProt P01903+P01911, A100R/A169T/F76Y/I96L/K127E/L162R/M171V/N62H/P40V/Q125Y/R42H/S133A/S149N/S66Y/V209L/W38E); experiment: Competitive binding to MHC-II protein DR4Dw14; settings: 0404; read-out: Protein binding IC50 (nM) 0404
Outline: (§3)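 Each MHC-II allele incubated with compound 16 hours at room temperature in duplicate; controls lacked compound, or both compound and MHC-II. Complexes captured 2 h at 4 °C, bound biotinylated peptide detected via europium-streptavidin and DELFIA enhancement, time-resolved fluorescence read at ex 340/em 613 (615) nm.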

[6] = molecular target: DR1 (DRA1*0101 DRB1*0101) (Homo sapiens, UniProt P01903+P01911, A100R/D57E/F55L/F60I/F76Y/I96L/L162R/M171V/P40L/Q125E/R42F/V115G/Y59C); experiment: Competitive binding to MHC-II protein DR1
Outline: as §3

[7] = molecular target: T2, Priess (DR4Dw4: DRA1*0101 DRB1*0401) cells (Homo sapiens, UniProt P01903+P01911, A100K/A169T/F76Y/I96L/K127E/L162R/M171V/N62H/P40V/Q125Y/R42H/S133A/S149N/S66Y/V115G/V209L/W38E); experiment: Competitive binding to MHC II proteins expressed on Priess cells; format: cell-based
T2 construct: MHC II Proteins Expressed on PRIESS and LG2 Cells; endogenous in cells; host or cells: Priess cells
Outline: as §2

[8] = test system: T-cell proliferation, DR14-LN; settings: for Immunsupressive assays DR14-LN (Max) % Inhibition: maximal inhibition; for IC50: read-out: Immunsupressive assays DR14-LN (IC50)
[9] = molecular target: DR4Dw4 (DRA1*0101 DRB1*0401) (Homo sapiens, UniProt P01903+P01911, A100K/A169T/F76Y/I96L/K127E/L162R/M171V/N62H/P40V/Q125Y/R42H/S133A/S149N/S66Y/V115G/V209L/W38E); experiment: Competitive binding to MHC-II protein DR4Dw4
Outline: as §3

[10] = Cell binding IC50 (uM) LG2 (0101)
[11] = Protein binding IC50 (nM) 0101, 0101

## CSCC[C@H](NC(=O)[C@@H]1Cc2ccccc2CN1C(=O)[C@@H](NC(=O)[C@H](CC1CCCCC1)NC(C)=O)C1CCN(C(=N)N)CC1)C(=O)N1CC[C@H](c2ccccc2)[C@H]1C(=O)N[C@@H](CO)c1nc(C(=O)N(C)C)c(C(C)C)o1 [Compound P60, Ac-Cha-Gpg-Tic-Met-βPhPro-[S(oxaz)L]-NMe2] (Ac-[Cha][Gly(1-amidinopiperidin-4-yl)][Tic]M[Pro(3R-Ph)][X1]-NMe2)
[1]
  Stability (Arbitrary units) Human 24 h: 120 Arbitrary units
[2]; [10]
  IC50: 1.5 µM
[3]
  Stability (Arbitrary units) Rat 6 h: 134 Arbitrary units
  Stability (Arbitrary units) Rat 24 h: 124 Arbitrary units
[4]
  Stability (Arbitrary units) Mouse 6 h: 111 Arbitrary units
  Stability (Arbitrary units) Mouse 24 h: 95 Arbitrary units
[5]
  IC50: 190 nM
[6]; [11]
  IC50: 250 nM
[7]
  IC50: 2.1 µM
[8]
  Immunsupressive assays DR14-LN (Max) % Inhibition: 98%
  IC50: 41000 nM
[9]
  IC50: 230 nM

## CCCC[C@H](NC(=O)[C@@H]1Cc2ccccc2CN1C(=O)[C@@H](NC(=O)[C@H](CC1CCCCC1)NC(C)=O)C1CCN(C(=N)N)CC1)C(=O)N(C)Cc1ccccc1 [Compound P74, Ac-Cha-Gpg-Tic-Nle-N(Me)Bn] (Ac-[Cha][Gly(1-amidinopiperidin-4-yl)][Tic][Nle]-{NMe(benzyl)})
[1]
  Stability (Arbitrary units) Human 6 h: 114 Arbitrary units
  Stability (Arbitrary units) Human 24 h: 125 Arbitrary units
[2]; [10]
  IC50: 6.1 µM
[3]
  Stability (Arbitrary units) Rat 6 h: 91 Arbitrary units
  Stability (Arbitrary units) Rat 24 h: 71 Arbitrary units
[4]
  Stability (Arbitrary units) Mouse 24 h: 97 Arbitrary units
[5]
  IC50: 2200 nM
[6]; [11]
  IC50: 360 nM
[7]
  IC50: 9.2 µM
[7]; compared to the Arg-containing equivalent
  binding to MHC class II protein expressed on the surface of Priess cells: Improved binding
[8]
  Immunsupressive assays DR14-LN (Max) % Inhibition: 97%
  IC50: 14000 nM
[9]
  IC50: 3400 nM

## CCCC[C@H](NC(=O)C1c2ccccc2CN1C(=O)[C@H](CCCNC(=N)N)NC(=O)[C@H](CC1CCCCC1)NC(C)=O)C(=O)N(C)Cc1ccccc1 (stereo partly drawn) [Compound P72-1, Ac-Cha-Arg-Disc-Nle-N(Me)Bn] (Ac-[Cha]R[ξDisc][Nle]-{NMe(benzyl)})
[1]
  Stability (Arbitrary units) Human 6 h: 99 Arbitrary units
  Stability (Arbitrary units) Human 24 h: 99 Arbitrary units
[2]; [10]
  IC50: 12 µM
[3]
  Stability (Arbitrary units) Rat 6 h: 80 Arbitrary units
  Stability (Arbitrary units) Rat 24 h: 67 Arbitrary units
[4]
  Stability (Arbitrary units) Mouse 6 h: 97 Arbitrary units
  Stability (Arbitrary units) Mouse 24 h: 75 Arbitrary units
[5]
  IC50: 1700 nM
[6]; [11]
  IC50: 1200 nM
[7]
  IC50: 7.5 µM
[8]
  Immunsupressive assays DR14-LN (Max) % Inhibition: 95%
  IC50: 29000 nM
[9]
  IC50: 5200 nM

## CCCC[C@H](NC(=O)[C@@H]1Cc2ccccc2CN1C(=O)[C@@H](NC(=O)[C@H](CC1CCCCC1)NC(C)=O)C1CCN(C(=N)N)CC1)C(=O)N1CC[C@H](c2ccccc2)[C@H]1C(=O)N[C@@H](CO)c1nc(C(=O)N(C)C)c(C(C)C)o1 [Compound P53, Ac-Cha-Gpg-Tic-Nle-βPhPro-[S(oxaz)L]-NMe2] (Ac-[Cha][Gly(1-amidinopiperidin-4-yl)][Tic][Nle][Pro(3R-Ph)][X1]-NMe2)
[1]
  Stability (Arbitrary units) Human 6 h: 110 Arbitrary units
  Stability (Arbitrary units) Human 24 h: 122 Arbitrary units
[2]; [10]
  IC50: 3.5 µM
[3]
  Stability (Arbitrary units) Rat 6 h: 114 Arbitrary units
  Stability (Arbitrary units) Rat 24 h: 108 Arbitrary units
[4]
  Stability (Arbitrary units) Mouse 6 h: 117 Arbitrary units
  Stability (Arbitrary units) Mouse 24 h: 115 Arbitrary units
[5]
  IC50: 180 nM
[6]; [11]
  IC50: 340 nM
[7]
  IC50: 3 µM
[8]
  Immunsupressive assays DR14-LN (Max) % Inhibition: 101%
  IC50: 32000 nM
[9]
  IC50: 410 nM

## CCCC[C@H](NC(=O)C1c2ccccc2CN1C(=O)[C@@H](NC(=O)[C@H](CC1CCCCC1)NC(C)=O)C1CCN(C(=N)N)CC1)C(=O)N1CC[C@H](c2ccccc2)[C@H]1C(=O)N[C@@H](CO)c1nc(C(=O)N(C)C)c(C(C)C)o1 (stereo partly drawn) [Compound P81-1] (Ac-[Cha][Gly(1-amidinopiperidin-4-yl)][ξDisc][Nle][Pro(3R-Ph)][X1]-NMe2)
[1]
  Stability (Arbitrary units) Human 6 h: 151 Arbitrary units
  Stability (Arbitrary units) Human 24 h: 162 Arbitrary units
[2]; [10]
  IC50: 5 µM
[3]
  Stability (Arbitrary units) Rat 6 h: 151 Arbitrary units
  Stability (Arbitrary units) Rat 24 h: 112 Arbitrary units
[4]
  Stability (Arbitrary units) Mouse 6 h: 87 Arbitrary units
  Stability (Arbitrary units) Mouse 24 h: 84 Arbitrary units
[5]
  IC50: 90 nM
[6]; [11]
  IC50: 220 nM
[7]
  IC50: 3.4 µM
[8]
  IC50: 43000 nM
[9]
  IC50: 260 nM

## CSCC[C@H](NC(=O)C1c2ccccc2CN1C(=O)[C@@H](NC(=O)[C@H](CC1CCCCC1)NC(C)=O)C1CCN(C(=N)N)CC1)C(=O)N1CC[C@H](c2ccccc2)[C@H]1C(=O)N[C@@H](CO)c1nc(C(=O)N(C)C)c(C(C)C)o1 (stereo partly drawn) [Compound P41-1, Ac-Cha-Gpg-Disc-Met-βPhPro-[S(oxaz)L]-NMe2] (Ac-[Cha][Gly(1-amidinopiperidin-4-yl)][ξDisc]M[Pro(3R-Ph)][X1]-NMe2)
[1]
  Stability (Arbitrary units) Human 6 h: 59 Arbitrary units
  Stability (Arbitrary units) Human 24 h: 115 Arbitrary units
[2]; [10]
  IC50: 3.8 µM
[3]
  Stability (Arbitrary units) Rat 6 h: 91 Arbitrary units
[3]; rat plasma, 24 h
  Stability (Arbitrary units) Rat 24 h: 103 Arbitrary units
[4]
  Stability (Arbitrary units) Mouse 6 h: 100 Arbitrary units
  Stability (Arbitrary units) Mouse 24 h: 111 Arbitrary units
[5]
  IC50: 110 nM
[6]; [11]
  IC50: 160 nM
[7]
  IC50: 3.7 µM
[8]
  Immunsupressive assays DR14-LN (Max) % Inhibition: 98%
  IC50: 25000 nM
[9]
  IC50: 200 nM

## CCCC[C@H](NC(=O)[C@@H]1Cc2ccccc2CN1C(=O)[C@@H](NC(=O)[C@H](CC1CCCCC1)NC(C)=O)C1CCN(C(=N)N)CC1)C(=O)NCCOCCO [Compound P70, Ac-Cha-Gpg-Tic-Nle-N(H)CH2CH2OCH2CH2OH] (Ac-[Cha][Gly(1-amidinopiperidin-4-yl)][Tic][Nle]-X3)
[1]
  Stability (Arbitrary units) Human 6 h: 116 Arbitrary units
  Stability (Arbitrary units) Human 24 h: 90 Arbitrary units
[2]; [10]
  IC50: 5.7 µM
[3]
  Stability (Arbitrary units) Rat 6 h: 83 Arbitrary units
  Stability (Arbitrary units) Rat 24 h: 65 Arbitrary units
[4]
  Stability (Arbitrary units) Mouse 6 h: 105 Arbitrary units
  Stability (Arbitrary units) Mouse 24 h: 82 Arbitrary units
[5]
  IC50: 290 nM
[6]; [11]
  IC50: 90 nM
[7]
  IC50: 8.6 µM
[9]
  IC50: 440 nM

## CCCC[C@H](NC(=O)C1c2ccccc2CN1C(=O)[C@@H](NC(=O)[C@H](CC1CCCCC1)NC(C)=O)C1CCN(C(=N)N)CC1)C(=O)N(C)Cc1ccccc1 (single isomer, unassigned) [Compound P76-1, Ac-Cha-Gpg-Disc-Nle-N(Me)Bn]
[1]
  Stability (Arbitrary units) Human 6 h: 93 Arbitrary units
  Stability (Arbitrary units) Human 24 h: 107 Arbitrary units
[2]; read-out: Cell binding IC50 (uM) LG2 (0101)
  IC50: 4.6 µM
[3]
  Stability (Arbitrary units) Rat 6 h: 80 Arbitrary units
  Stability (Arbitrary units) Rat 24 h: 84 Arbitrary units
[4]
  Stability (Arbitrary units) Mouse 6 h: 93 Arbitrary units
  Stability (Arbitrary units) Mouse 24 h: 16 Arbitrary units
[5]
  IC50: 1400 nM
[6]; read-out: Protein binding IC50 (nM) 0101, 0101
  IC50: 550 nM
[7]; read-out: Cell binding IC50 (uM) Priess (0401), Priess (0401)
  IC50: 9.8 µM
[9]; read-out: Protein binding IC50 (nM) 0401, 0401
  IC50: 2300 nM
